Measurements published in ChEMBL document CHEMBL1909046, “DrugMatrix in vitro pharmacology data”.

Columns and labels:
[1] = biological target: T1, Cysteinyl leukotriene receptor 1 (Homo sapiens, UniProt Q9Y271); type: cell membranes, Membrane; details: cho-k1; note: in other assays of this panel Not Active means under 50% inhibition at 10 µM
T1 sequence (Q9Y271 whole entry): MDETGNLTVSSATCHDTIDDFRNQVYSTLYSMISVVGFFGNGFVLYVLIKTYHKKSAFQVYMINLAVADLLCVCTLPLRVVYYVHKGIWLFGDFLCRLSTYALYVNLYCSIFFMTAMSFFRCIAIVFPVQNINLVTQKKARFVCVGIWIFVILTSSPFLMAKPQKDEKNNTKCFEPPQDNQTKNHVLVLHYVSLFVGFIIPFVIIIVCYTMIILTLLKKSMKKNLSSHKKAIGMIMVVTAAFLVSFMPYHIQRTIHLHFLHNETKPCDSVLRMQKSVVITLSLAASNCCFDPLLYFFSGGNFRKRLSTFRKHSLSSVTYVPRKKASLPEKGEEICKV

[2] = biological target: T2, Cholecystokinin receptor type A (Homo sapiens, UniProt P32238); type: cell membranes, Membrane; details: 1321-n1; note: in other assays of this panel Not Active means under 50% inhibition at 10 µM
T2 sequence (P32238 whole entry): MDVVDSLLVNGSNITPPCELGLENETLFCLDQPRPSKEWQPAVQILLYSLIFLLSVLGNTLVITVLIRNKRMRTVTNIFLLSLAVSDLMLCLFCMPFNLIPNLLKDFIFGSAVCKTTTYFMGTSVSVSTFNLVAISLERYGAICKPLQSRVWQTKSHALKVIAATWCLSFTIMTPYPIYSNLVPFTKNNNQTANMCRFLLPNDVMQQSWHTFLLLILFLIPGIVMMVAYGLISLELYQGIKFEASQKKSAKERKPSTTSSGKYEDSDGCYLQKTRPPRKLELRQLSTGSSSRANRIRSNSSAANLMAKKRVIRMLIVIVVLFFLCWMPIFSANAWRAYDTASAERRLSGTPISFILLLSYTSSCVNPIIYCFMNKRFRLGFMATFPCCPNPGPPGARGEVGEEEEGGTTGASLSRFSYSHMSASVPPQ

[3] = DRUGMATRIX: Leukotriene, BLT (LTB4) radioligand binding (ligand: [3H]LTB4); type: cell membranes, Membrane; details: u-937; Not Active = under 50% inhibition at 10 µM
[4] = biological target: 5-hydroxytryptamine receptor 2B (Homo sapiens, UniProt P41595); type: cell membranes, CHO-K1, Membrane; details: cho-k1; note: in other assays of this panel Not Active means under 50% inhibition at 10 µM
5-hydroxytryptamine receptor 2B, sequence (P41595 whole entry): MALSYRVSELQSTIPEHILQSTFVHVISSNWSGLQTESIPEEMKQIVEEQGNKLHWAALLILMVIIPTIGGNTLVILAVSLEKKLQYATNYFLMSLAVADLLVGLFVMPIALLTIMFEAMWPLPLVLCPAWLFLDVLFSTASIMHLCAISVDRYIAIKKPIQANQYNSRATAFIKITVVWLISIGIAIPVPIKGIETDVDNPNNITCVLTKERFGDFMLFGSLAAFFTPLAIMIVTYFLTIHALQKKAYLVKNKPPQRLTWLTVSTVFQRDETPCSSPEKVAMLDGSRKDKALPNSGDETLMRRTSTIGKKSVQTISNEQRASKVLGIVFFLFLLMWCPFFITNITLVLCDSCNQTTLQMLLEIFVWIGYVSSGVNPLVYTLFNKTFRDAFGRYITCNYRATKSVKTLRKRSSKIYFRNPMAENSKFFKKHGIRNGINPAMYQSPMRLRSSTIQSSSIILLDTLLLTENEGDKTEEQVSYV

[5] = DRUGMATRIX: Phosphodiesterase PDE4 enzyme inhibition (substrate: [3H]cAMP + cAMP); details: u-937; Not Active = under 50% inhibition at 10 µM
[6] = biological target: T3, Cytochrome P450 2A6 (Homo sapiens, UniProt P11509); details: bti-tn-5b1-4; note: in other assays of this panel Not Active means under 50% inhibition at 10 µM
T3 sequence (P11509 whole entry): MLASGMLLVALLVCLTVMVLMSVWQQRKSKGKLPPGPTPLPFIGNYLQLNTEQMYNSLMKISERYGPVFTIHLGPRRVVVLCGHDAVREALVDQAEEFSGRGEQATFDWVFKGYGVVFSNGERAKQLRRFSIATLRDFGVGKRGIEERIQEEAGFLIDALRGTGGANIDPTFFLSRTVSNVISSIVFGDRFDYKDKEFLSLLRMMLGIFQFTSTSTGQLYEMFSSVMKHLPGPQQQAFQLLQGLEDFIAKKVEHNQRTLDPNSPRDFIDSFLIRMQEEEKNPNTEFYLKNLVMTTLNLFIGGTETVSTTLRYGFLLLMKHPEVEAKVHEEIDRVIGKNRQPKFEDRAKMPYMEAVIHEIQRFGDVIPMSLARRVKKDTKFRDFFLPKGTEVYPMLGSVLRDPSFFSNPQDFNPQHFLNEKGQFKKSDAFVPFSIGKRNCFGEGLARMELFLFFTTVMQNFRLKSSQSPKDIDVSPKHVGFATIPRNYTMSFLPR

[7] = biological target: T4, Interstitial collagenase (Homo sapiens, UniProt P03956); assay: biochemical; type: tissue-based, Rheumatoid synovial fibroblasts
T4 sequence (P03956 whole entry): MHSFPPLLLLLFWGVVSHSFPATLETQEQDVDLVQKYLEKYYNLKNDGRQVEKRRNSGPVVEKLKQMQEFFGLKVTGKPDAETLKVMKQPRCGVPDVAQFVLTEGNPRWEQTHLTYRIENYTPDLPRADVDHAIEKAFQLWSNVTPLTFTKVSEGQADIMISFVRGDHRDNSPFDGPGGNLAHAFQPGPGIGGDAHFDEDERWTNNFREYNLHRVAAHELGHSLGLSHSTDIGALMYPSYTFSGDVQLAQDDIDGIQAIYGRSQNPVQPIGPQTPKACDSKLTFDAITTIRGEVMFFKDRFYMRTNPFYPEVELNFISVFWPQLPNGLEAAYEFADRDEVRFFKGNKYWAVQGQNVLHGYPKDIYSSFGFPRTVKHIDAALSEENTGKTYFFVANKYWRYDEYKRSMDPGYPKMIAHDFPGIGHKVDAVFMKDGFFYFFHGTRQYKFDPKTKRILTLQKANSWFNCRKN

CCN(CC)CCNC(=O)c1ccc(N)cc1 [PROCAINAMIDE]
Not Active: IC50 [1] | IC50 [2] | IC50 [3] | Ki [3] | IC50 [4] | IC50 [5] | Ki [5] | IC50 [6] | Ki [6] | IC50 [7]

CCN(CC)CCCC(C)Nc1c2ccc(Cl)cc2nc2ccc(OC)cc12 (stereo not drawn) [QUINACRINE]
Not Active: IC50 [1] | IC50 [2] | IC50 [3] | Ki [3] | IC50 [4] | IC50 [5] | Ki [5] | IC50 [6] | Ki [6] | IC50 [7]

C[C@]12C=CC(=O)C=C1CC[C@H]1[C@@H]3C[C@@H](O)[C@](O)(C(=O)CO)[C@@]3(C)C[C@H](O)[C@@]12F [TRIAMCINOLONE]
Not Active: IC50 [1] | IC50 [2] | IC50 [3] | Ki [3] | IC50 [4] | IC50 [5] | Ki [5] | IC50 [6] | Ki [6] | IC50 [7]

CC[C@]1(O)C[C@@H]2CN(CCc3c([nH]c4ccccc34)[C@@](C(=O)OC)(c3cc4c(cc3OC)N(C)[C@H]3[C@@](O)(C(N)=O)[C@H](O)[C@]5(CC)C=CCN6CC[C@]43[C@@H]65)C2)C1 [VINDESINE]
Not Active: IC50 [1] | IC50 [2] | IC50 [3] | Ki [3] | IC50 [4] | IC50 [5] | Ki [5] | IC50 [6] | Ki [6] | IC50 [7]

CCN(C(C)=O)c1cccc(-c2ccnc3c(C#N)cnn23)c1 [ZALEPLON]
Not Active: IC50 [1] | IC50 [2] | IC50 [3] | Ki [3] | IC50 [4] | IC50 [5] | Ki [5] | IC50 [6] | Ki [6] | IC50 [7]

COBALTOUS CHLORIDE
Not Active: IC50 [1] | Ki [1] | IC50 [2] | Ki [2] | IC50 [3] | Ki [3] | IC50 [4] | Ki [4] | IC50 [5] | Ki [5] | IC50 [6] | Ki [6] | IC50 [7] | Ki [7]

COLISTIN
Not Active: IC50 [1] | Ki [1] | IC50 [2] | Ki [2] | IC50 [3] | Ki [3] | IC50 [4] | Ki [4] | IC50 [5] | Ki [5] | IC50 [6] | Ki [6] | IC50 [7] | Ki [7]
